Results: PMC8880315, “Understanding the Impact of Age-Related Changes in Pediatric GI Solubility by Multivariate Data Analysis” (Pharmaceutics, 2022)
Converted amounts (≈) assume the structure as drawn. Where two headings read alike, the source gives them in different places.

How the values were obtained:
physchem [1] = details: 37 °C, thermodynamic from solid
physchem [2] = details: adult fed state simulated gastric fluid (FeSSGF), milk-based, 37 °C, pH 5, fassgf or other biorelevant, thermodynamic from solid
[3] = cited from earlier work
[4] = parameters: method as in PMID 26220249; details: cited from earlier work
[5] = adult fasted state simulated gastric fluid (FaSSGF), pH 1.6, fassgf or other biorelevant
[6] = adult fasted state simulated intestinal fluid (FaSSIF-V2), pH 6.5, fassif
[7] = adult fed state simulated intestinal fluid (FeSSIF-V2), pH 5.8, fessif
[8] = Table 1, reference per cell, none given for mebendazole
[9] = at least one of the newborn FeSSIF (Pnb-FeSSIF and Pnc-FeSSIF), previous solubility study

OCCN(CCO)c1nc(N2CCCCC2)c2nc(N(CCO)CCO)nc(N3CCCCC3)c2n1 [Dipyridamole]
solubility at 24 h (physchem [1]; [5]): 11500 ± 570 µg/mL (≈ 22800 µM) | solubility at 24 h (physchem [1]; [6]): 11.9 ± 0.17 µg/mL (≈ 23.5 µM) | solubility at 24 h (physchem [1]; [7]): 81.4 ± 1.74 µg/mL (≈ 161 µM) | solubility at 48 h (physchem [2]): 158 ± 7.22 µg/mL (≈ 314 µM) | solubility in pediatric vs adult medium (Pnc-FeSSGF (cow's milk formula) vs adult FeSSGF): significantly lower solubility | solubility in pediatric vs adult medium (Pns-FeSSGF (soy formula) vs adult FeSSGF): significantly higher solubility | solubility in pediatric vs adult medium (all pediatric fed intestinal media (Pnb-FeSSIF, Pnc-FeSSIF, Pi-FeSSIF) vs adult FeSSIF-V2): significant solubility differences | solubility in pediatric vs adult medium (pediatric fasted gastric fluids (Pn-FaSSGF and Pi-FaSSGF) vs adult FaSSGF, ANOVA p ≤ 0.05): higher solubility in both pediatric gastric fluids; however, these differences were not statistically significant | pKa (basic) [3, 8]: 5.7–6.4 (basic) [19, 20]

COC(=O)Nc1nc2ccc(C(=O)c3ccccc3)cc2[nH]1 [Mebendazole]
logP [3, 8]: 2.80 | pKa (basic) [3, 8]: 3.5 (basic)

Nc1ccc(O)c(C(=O)O)c1 [Mesalazine]
logP [3, 8]: 0.98 [8] | pKa (basic) [3, 8]: 5.69 | pKa (acidic) ([3]; Table 1, reference per cell): 2.3 | pKa (basic) ([3]; no reference given): 5.7

CC(C)(O)c1ccccc1CC[C@@H](SCC1(CC(=O)O)CC1)c1cccc(/C=C/c2ccc3ccc(Cl)cc3n2)c1 [Montelukast]
pKa (basic) [3, 8]: 2.7 | pKa (acidic) ([3]; Table 1, reference per cell): 5.8

O=C1CN(/N=C/c2ccc([N+](=O)[O-])o2)C(=O)N1 [Nitrofurantoin]
solubility at 24 h (physchem [1]; [5]): 196 ± 11.7 µg/mL (≈ 823 µM) | solubility at 24 h (physchem [1]; [6]): 215.7 ± 1.96 µg/mL (≈ 906 µM) | solubility at 24 h (physchem [1]; [7]): 209 ± 3.22 µg/mL (≈ 879 µM) | solubility at 48 h (physchem [2]): 390 ± 6.35 µg/mL (≈ 1640 µM) | Sp/Sa (%) vs 80–[…] risk assessment limits (all pediatric media tested): within the 80–125% risk assessment limits | solubility differences between adults and pediatrics (all pediatric media tested): no significant solubility differences | pKa (acidic) ([3]; Table 1, reference per cell): 7.2 (acidic) [13]

NC(=O)N1c2ccccc2C=Cc2ccccc21 [carbamazepine]
solubility in pediatric gastric fluids in comparison to adult gastric fluids ([4]; fasted gastric fluids, previous study): statistical different (p ≤ 0.05) and outside the purported bioequivalence criterion

Nc1ccc(S(=O)(=O)c2ccc(N)cc2)cc1 [dapsone]
logP ([3]; no reference given): 0.97

COC1=CC(=O)C[C@@H](C)[C@]12Oc1c(Cl)c(OC)cc(OC)c1C2=O [griseofulvin]
Sp/Sa (%) [4, 9]: below 80 % of adult values

COc1ccc2c(c1)c(CC(=O)O)c(C)n2C(=O)c1ccc(Cl)cc1 [indomethacin]
Sp/Sa (%) vs 80–[…] threshold ([4]; newborn gastric media (Pn-FaSSGF), previous study): outside the limits of the 80–125% threshold | logP ([3]; no reference given): 4.3

O=C1NC(=O)C(c2ccccc2)(c2ccccc2)N1 [phenytoin]
Sp/Sa (%) ([4]; Pnc-FeSSIF, compound of the previous study): significant lower | Sp/Sa (%) [4, 9]: below 80 % of adult values
